Laboratory results reported in article PMC10887160, “Phanogracilins A–C, New Bibenzochromenones of Crinoid Phanogenia gracilis (Hartlaub, 1890)” (Biomolecules, 2024).

What was measured:
[1] = target: T1, Mycobacterium tuberculosis CYP125 (Mycobacterium tuberculosis, UniProt P9WPP1); experiment: surface plasmon resonance; type: binding
[2] = target: T2, Mycobacterium tuberculosis CYP126 (Mycobacterium tuberculosis, UniProt P9WPN9); experiment: surface plasmon resonance; type: binding
[3] = target: T3, Mycobacterium tuberculosis CYP51 (Mycobacterium tuberculosis, UniProt P9WPP9); experiment: surface plasmon resonance; type: binding
Candida glabrata CYP51 [4] = target: T4, Candida glabrata CYP51 (Nakaseomyces glabratus, UniProt P50859); experiment: biochemical; parameters: SPR (Biacore, CM5 chip, immobilised CYP), two-state reaction model, global fit KD; details: SPR, two-state model; read-out: KD (мкM)
T4 construct: gene ERG11; recombinant, immobilised on CM5 SPR chip
Description: (§1) Cytochrome P450 and steroid dehydrogenases are pharmaceutically significant drug targets. However, for most of these targets, there is no effective, selective and safe regulator. In this regard, many laboratories and pharmaceutical companies around the world are working on producing selective modulators of cytochrome P450 and human steroid dehydrogenase. […] Injection of a solution of ligands (studied CYPs) in immobilization buffer (10 mM sodium acetate, pH 4.5 in the case of CYP51 Candida albicans and Candida glabrata; 10 mM sodium acetate, pH 5.0 in the case of all other CYPs) was carried out for 5 min at flow rate 5 µL/min. After this, the chip was incubated for 1 hour in a docked state in the “Stand By” device mode at a measuring cell temperature of 25°C, which led to the hydrolysis of unreacted activated dextran groups. Table S4. The amount of the ligand immobilized on the chip. MT - Mycobacterium tuberculosis, human - Homo sapiens, Calb - Candida albicans, Cglab - Candida glabrata Ligands The amount of the ligand immobilized, RU CYP51_MT 5499 CYP124_MT 3315 CYP125_MT 5730 CYP126_MT 4590 CYP142_MT 2445 CYP51_human 8286 CYP51_Calb 2603 CYP51_Cglab 4888

[5] = target: T1, Mycobacterium tuberculosis CYP125; experiment: biochemical; parameters: SPR (Biacore, CM5 chip, immobilised CYP), two-state reaction model, global fit KD
Description: as §1

[6] = target: T3, Mycobacterium tuberculosis CYP51; experiment: biochemical; parameters: SPR (Biacore, CM5 chip, immobilised CYP), two-state reaction model, global fit KD
Description: as §1

[7] = target: T2, Mycobacterium tuberculosis CYP126; experiment: biochemical; parameters: SPR (Biacore, CM5 chip, immobilised CYP), two-state reaction model, global fit KD
Description: as §1

[8] = target: Mycobacterium tuberculosis CYP142 (Mycobacterium tuberculosis, UniProt P9WPL5); experiment: surface plasmon resonance; type: binding
Candida glabrata CYP51 [9] = target: T4, Candida glabrata CYP51; experiment: surface plasmon resonance; type: binding
[10] = target: Mycobacterium tuberculosis CYP124 (Mycobacterium tuberculosis, UniProt P9WPP3); experiment: surface plasmon resonance; type: binding
Homo sapiens CYP51 = target: T5, Homo sapiens CYP51 (Homo sapiens, UniProt Q16850); experiment: surface plasmon resonance; type: binding
T5 construct: gene CYP51A1; recombinant, immobilised on CM5 SPR chip
T5 sequence (Q16850 1-509): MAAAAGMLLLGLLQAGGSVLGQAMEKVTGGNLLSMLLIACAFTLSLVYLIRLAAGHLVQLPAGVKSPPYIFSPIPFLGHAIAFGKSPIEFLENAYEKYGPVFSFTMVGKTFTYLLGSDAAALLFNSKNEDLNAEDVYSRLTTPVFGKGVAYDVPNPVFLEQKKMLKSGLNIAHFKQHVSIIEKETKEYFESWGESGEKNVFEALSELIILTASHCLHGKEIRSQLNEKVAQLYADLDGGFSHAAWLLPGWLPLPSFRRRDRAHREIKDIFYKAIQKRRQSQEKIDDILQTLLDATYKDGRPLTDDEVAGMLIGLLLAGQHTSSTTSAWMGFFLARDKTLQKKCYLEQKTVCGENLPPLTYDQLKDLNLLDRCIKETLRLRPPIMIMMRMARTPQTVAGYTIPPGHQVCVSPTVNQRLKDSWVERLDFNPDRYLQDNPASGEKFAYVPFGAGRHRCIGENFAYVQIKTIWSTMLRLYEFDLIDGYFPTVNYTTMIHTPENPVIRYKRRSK

Candida albicans CYP51 = target: T6, Candida albicans CYP51 (Candida albicans, UniProt P10613); experiment: surface plasmon resonance; type: binding
T6 construct: gene ERG11; recombinant, immobilised on CM5 SPR chip
T6 sequence (P10613 whole entry): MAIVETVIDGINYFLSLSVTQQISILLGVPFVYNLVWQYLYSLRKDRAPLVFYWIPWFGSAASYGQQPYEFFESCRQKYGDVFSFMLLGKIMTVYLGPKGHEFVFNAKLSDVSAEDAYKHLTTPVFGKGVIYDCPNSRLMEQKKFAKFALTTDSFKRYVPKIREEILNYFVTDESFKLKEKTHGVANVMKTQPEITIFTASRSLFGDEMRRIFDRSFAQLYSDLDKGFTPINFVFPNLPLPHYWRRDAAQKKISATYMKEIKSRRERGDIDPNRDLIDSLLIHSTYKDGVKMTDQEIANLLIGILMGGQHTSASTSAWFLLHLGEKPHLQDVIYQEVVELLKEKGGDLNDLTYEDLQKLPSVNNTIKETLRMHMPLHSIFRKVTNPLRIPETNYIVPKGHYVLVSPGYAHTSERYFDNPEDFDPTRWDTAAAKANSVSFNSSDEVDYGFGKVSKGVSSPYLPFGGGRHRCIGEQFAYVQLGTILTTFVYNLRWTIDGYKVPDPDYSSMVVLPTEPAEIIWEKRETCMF

T2 sequence (P9WPN9 whole entry): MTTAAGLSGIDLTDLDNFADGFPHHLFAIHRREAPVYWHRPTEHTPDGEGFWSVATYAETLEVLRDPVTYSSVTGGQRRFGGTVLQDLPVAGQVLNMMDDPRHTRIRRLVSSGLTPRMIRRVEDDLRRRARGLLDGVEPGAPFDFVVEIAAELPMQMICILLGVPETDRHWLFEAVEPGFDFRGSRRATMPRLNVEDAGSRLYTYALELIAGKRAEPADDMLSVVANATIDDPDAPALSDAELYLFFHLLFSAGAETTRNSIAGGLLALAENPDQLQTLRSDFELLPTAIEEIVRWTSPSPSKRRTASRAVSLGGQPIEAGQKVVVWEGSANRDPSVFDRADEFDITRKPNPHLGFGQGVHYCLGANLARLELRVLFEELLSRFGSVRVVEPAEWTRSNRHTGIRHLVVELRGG
T1 sequence (P9WPP1 whole entry): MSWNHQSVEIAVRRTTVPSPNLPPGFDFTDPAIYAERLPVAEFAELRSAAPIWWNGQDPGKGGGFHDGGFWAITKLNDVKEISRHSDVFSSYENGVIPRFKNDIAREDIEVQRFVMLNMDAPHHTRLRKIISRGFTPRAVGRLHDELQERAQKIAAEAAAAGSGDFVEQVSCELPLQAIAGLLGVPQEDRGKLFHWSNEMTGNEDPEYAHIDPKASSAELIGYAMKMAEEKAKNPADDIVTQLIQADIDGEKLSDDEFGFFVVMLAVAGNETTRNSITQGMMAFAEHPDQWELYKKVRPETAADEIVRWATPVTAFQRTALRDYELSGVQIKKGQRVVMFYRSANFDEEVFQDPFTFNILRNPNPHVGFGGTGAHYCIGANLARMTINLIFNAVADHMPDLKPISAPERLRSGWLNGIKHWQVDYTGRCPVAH
T4 sequence (P50859 whole entry): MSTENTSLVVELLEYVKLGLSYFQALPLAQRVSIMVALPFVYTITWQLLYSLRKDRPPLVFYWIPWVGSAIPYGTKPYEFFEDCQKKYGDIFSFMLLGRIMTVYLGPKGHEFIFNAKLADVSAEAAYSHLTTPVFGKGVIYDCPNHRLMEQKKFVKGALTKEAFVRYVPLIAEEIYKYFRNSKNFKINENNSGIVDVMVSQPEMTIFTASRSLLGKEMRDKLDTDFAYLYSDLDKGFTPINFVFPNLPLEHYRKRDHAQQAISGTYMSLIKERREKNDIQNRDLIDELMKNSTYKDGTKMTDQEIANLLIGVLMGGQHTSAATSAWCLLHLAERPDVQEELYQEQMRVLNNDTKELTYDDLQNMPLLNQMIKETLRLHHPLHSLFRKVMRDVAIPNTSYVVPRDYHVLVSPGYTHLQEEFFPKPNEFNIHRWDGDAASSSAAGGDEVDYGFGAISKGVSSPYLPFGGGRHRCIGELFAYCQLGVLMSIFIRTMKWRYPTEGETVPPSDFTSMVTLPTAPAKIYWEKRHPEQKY
T3 sequence (P9WPP9 whole entry): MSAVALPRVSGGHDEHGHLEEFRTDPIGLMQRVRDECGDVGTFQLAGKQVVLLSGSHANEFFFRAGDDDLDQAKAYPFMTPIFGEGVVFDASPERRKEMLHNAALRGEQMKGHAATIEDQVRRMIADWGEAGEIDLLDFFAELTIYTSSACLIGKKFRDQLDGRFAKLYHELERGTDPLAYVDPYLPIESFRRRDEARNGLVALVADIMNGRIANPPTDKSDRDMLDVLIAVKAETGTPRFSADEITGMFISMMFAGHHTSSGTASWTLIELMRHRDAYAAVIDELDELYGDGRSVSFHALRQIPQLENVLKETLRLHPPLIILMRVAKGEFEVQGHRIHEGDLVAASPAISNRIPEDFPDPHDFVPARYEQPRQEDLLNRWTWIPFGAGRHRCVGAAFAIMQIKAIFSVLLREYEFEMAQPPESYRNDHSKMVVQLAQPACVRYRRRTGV
Mycobacterium tuberculosis CYP142, sequence (P9WPL5 whole entry): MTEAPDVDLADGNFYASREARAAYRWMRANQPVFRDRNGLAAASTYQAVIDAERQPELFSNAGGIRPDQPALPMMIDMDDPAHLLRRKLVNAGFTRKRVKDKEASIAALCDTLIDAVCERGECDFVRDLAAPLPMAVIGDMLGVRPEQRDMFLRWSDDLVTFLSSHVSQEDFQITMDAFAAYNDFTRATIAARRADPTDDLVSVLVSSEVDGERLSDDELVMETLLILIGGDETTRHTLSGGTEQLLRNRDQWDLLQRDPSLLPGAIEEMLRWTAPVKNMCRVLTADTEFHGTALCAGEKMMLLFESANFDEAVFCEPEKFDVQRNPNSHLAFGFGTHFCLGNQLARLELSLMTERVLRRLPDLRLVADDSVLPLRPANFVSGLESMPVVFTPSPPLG
Mycobacterium tuberculosis CYP124, sequence (P9WPP3 whole entry): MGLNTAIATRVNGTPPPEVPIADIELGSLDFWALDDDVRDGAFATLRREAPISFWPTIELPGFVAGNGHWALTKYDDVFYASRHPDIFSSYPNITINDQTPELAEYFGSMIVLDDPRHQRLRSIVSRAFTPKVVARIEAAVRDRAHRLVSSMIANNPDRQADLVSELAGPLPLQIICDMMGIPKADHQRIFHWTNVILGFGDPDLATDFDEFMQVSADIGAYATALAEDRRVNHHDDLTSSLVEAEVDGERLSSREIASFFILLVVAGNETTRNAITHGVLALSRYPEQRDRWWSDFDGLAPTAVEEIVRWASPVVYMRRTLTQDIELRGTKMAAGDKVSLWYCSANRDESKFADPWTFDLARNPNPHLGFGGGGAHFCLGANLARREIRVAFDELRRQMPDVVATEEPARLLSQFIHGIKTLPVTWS

CCCc1cc(=O)c2c(O)c3c(O)c(-c4c(O)cc(O)c5c(O)c6c(=O)cc(CCC)oc6cc45)c(O)cc3cc2o1 [compound 1, 5,5′,6,6′,8,8′-hexahydroxy-2,2′-dipropyl-4H,4′H-[7,9′-bibenzo[g]chromene]-4,4′-dione]
Kd [1]: > 10 µM
Kd [2]: > 10 µM
Kd [3]: > 10 µM
Kd (Candida glabrata CYP51 [4]): 93.9 µM
Kd [5]: 55.3 µM
Kd [6]: 67.3 µM
Kd [7]: 60.5 µM
Kd [8]: > 10 µM
Kd (Candida glabrata CYP51 [9]): > 10 µM
Kd [10]: > 10 µM
Kd (Homo sapiens CYP51): > 10 µM
Kd (Candida albicans CYP51): > 10 µM
